Assay results: ChEMBL document CHEMBL3046490, “Evaluation of fungicides to control circular leaf spot of persimmon caused by Mycosphaerella nawae” (Crop Prot, 2011)
In brackets after ≈: the same amount, converted by molar mass.

How the values were obtained:
Assay type in all cases: functional, organism-based
[1] = system: Plurivorosphaerella nawae; assay: Antifungal activity against circular leaf spot causing Mycosphaerella nawae MY1 assessed as inhibition of mycelial growth on potato dextrose agar
[2] = system: Plurivorosphaerella nawae; assay: Antifungal activity against circular leaf spot causing Mycosphaerella nawae MY5 assessed as inhibition of mycelial growth on potato dextrose agar
Monilinia fructicola = assay: Antifungal activity against Monilinia fructicola isolated from peach fields assessed as mycelial growth inhibition
Zasmidium citrigriseum = assay: Antifungal activity against citrus greasy spot disease caused by Zasmidium citri assessed as inhibition of mycelial growth on potato dextrose agar

| SMILES | EC50 [1] [µg/mL] | EC50 [2] [µg/mL] | EC50 (Monilinia fructicola) [ppm] | EC50 (Zasmidium citrigriseum) [ppm] |
| --- | --- | --- | --- | --- |
| CN(C)C(=S)SSC(=S)N(C)C [THIRAM] | 13.8 (≈ 57.4 µM) | 26.8 (≈ 111 µM) |  |  |
| CC(Cc1ccc(C(C)(C)C)cc1)CN1C[C@@H](C)O[C@@H](C)C1 (stereo not given in full) [FENPROPIMORPH] | 0.2 (≈ 0.659 µM) | 0.4 (≈ 1.32 µM) |  |  |
| CC(C)(C)C(O)(CCc1ccc(Cl)cc1)Cn1cncn1 (stereo not given) [TEBUCONAZOLE] | 1.3 (≈ 4.22 µM) | 0.7 (≈ 2.27 µM) |  |  |
| O=[N+]([O-])c1cc(C(F)(F)F)c(Cl)c([N+](=O)[O-])c1Nc1ncc(C(F)(F)F)cc1Cl [FLUAZINAM] | 24 (≈ 51.6 µM) | 50.6 (≈ 109 µM) |  |  |
| O=C1C2CC=CCC2C(=O)N1SC(Cl)(Cl)Cl (stereo not given) [CAPTAN] | > 100 | > 100 |  |  |
| COC(=O)NC(=S)Nc1ccccc1NC(=S)NC(=O)OC [THIOPHANATE METHYL] | 1.5 (≈ 4.38 µM) | 1.7 (≈ 4.96 µM) |  |  |
| Cc1cc(C2CC2)nc(Nc2ccccc2)n1 [CYPRODINIL] | 76.8 (≈ 341 µM) | 52.4 (≈ 233 µM) |  |  |
| N#Cc1c(Cl)c(Cl)c(Cl)c(C#N)c1Cl [CHLOROTHALONIL] | 33.5 (≈ 126 µM) | 17 (≈ 63.9 µM) |  |  |
| COC(=O)N(OC)c1ccccc1COc1ccn(-c2ccc(Cl)cc2)n1 [PYRACLOSTROBIN] | 1.6 (≈ 4.13 µM) | 1.9 (≈ 4.9 µM) | 0.04 | 0.03 |
